According to patent publication US20240360178A1, “MACROCYCLIC IMMUNOMODULATORS” (Bristol-Myers Squibb Company, priority 2021, published 2024):
Positions of bridges follow the written chain, without caps; N, C: chain ends. Non-standard residues stand in square brackets, D forms with d. Residues, ends and D or L forms follow the SMILES beside them. ξ: configuration not given here. *: point of attachment. Phe(4-COOH) = N[C@@H](Cc1ccc(C(=O)O)cc1)C(=O)O; Bip = N[C@@H](Cc1ccc(-c2ccccc2)cc1)C(=O)O; Phe(3-Me) = Cc1cccc(C[C@H](N)C(=O)O)c1; NMeY = CN[C@@H](Cc1ccc(O)cc1)C(=O)O; NMeF = CN[C@@H](Cc1ccccc1)C(=O)O; 4Pal = N[C@@H](Cc1ccncc1)C(=O)O; Cha = N[C@@H](CC1CCCCC1)C(=O)O; Cit = NC(=O)NCCC[C@H](N)C(=O)O; Carboxymethyl = O=C(O)C*; NMeA = CN[C@@H](C)C(=O)O; Nle = CCCC[C@H](N)C(=O)O; Orn = NCCC[C@H](N)C(=O)O; Dab = NCC[C@H](N)C(=O)O; ξV = CC(C)C(N)C(=O)O; Sar = CNCC(=O)O

Each molecule was assayed against T1, human PD-1 (Jurkat-PD-1 cells) / PE-labeled human PD-L1-Ig (Homo sapiens, UniProt Q15116) (assay: Jurkat-PD-1 Cell Binding High-Content Screening Assay (CBA); Jurkat hPD1-PDL1 assay). Conditions: Jurkat cell line over-expressing human PD-1; PE-labeled PD-L1-Ig 20 nM final; compound incubated 2 hours at 37° C.; read-out: Jurkat HPD1-PDL1 IC50.
T1 construct: expressed in transfected cells; host or cells: Jurkat cell line over-expressing human PD-1
T1 sequence (Q15116 25-288): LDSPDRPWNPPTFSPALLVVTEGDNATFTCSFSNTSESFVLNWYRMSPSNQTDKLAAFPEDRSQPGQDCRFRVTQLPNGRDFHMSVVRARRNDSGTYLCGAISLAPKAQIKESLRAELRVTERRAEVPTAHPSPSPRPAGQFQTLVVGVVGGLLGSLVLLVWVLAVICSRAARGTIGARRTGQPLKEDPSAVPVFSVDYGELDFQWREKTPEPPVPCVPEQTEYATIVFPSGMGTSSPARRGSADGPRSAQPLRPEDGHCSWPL
Method in brief: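 Cell binding by imaging: Jurkat line stably over-expressing human PD-1, compound pre-exposure 2 h at 37° C, PE-conjugated PD-L1-Ig 20 nM final, medium DMEM containing 10% FCS.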

In order of falling IC50:
1. CC(C)C[C@@H]1NC(=O)[C@H](CCCNC(=N)N)NC(=O)[C@H](Cc2ccccc2)N(C)C(=O)[C@H](CCCNC(N)=O)NC(=O)[C@H](CCCNC(=N)N)NC(=O)[C@H](Cc2ccc(-c3ccccc3)cc2)NC(=O)[C@H](C(C)C)NC(=O)[C@H](Cc2c[nH]c3ccccc23)NC(=O)[C@H](CC(=O)O)NC(=O)[C@H](Cc2ccc(O)cc2)NC(=O)[C@H](Cc2ccccc2)NC(=O)CSC[C@@H](C(=O)NCC(N)=O)NC(=O)[C@H](CO)NC(=O)[C@H](C(C)C)NC1=O [Example 1276] ({CH2CO}-FYDWV[Bip]R[Cit][NMeF]RLVSCG-NH2; thioether N-14)  840 nM
2. CC(C)C[C@@H]1NC(=O)[C@H](CCCNC(=N)N)NC(=O)[C@H](Cc2ccccc2)N(C)C(=O)[C@H](CCCCN)NC(=O)[C@H](CCCNC(=N)N)NC(=O)[C@H](Cc2ccc(-c3ccccc3)cc2)NC(=O)[C@H](C(C)C)NC(=O)[C@H](Cc2c[nH]c3ccccc23)NC(=O)[C@H](CC(=O)O)NC(=O)[C@H](Cc2ccc(O)cc2)NC(=O)[C@H](CC(N)=O)NC(=O)CSC[C@@H](C(=O)N[C@@H](C)C(N)=O)NC(=O)[C@H]([C@@H](C)O)NC(=O)[C@H](C(C)C)NC1=O [Example 1365] ({CH2CO}-NYDWV[Bip]RK[NMeF]RLVTCA-NH2; thioether N-14)  760 nM
3. CC(C)C[C@@H]1NC(=O)[C@H](CCCNC(=N)N)NC(=O)[C@H](Cc2ccccc2)N(C)C(=O)[C@H](C)N(C)C(=O)[C@H](CCCNC(=N)N)NC(=O)[C@H](Cc2ccc(-c3ccccc3)cc2)NC(=O)[C@H](C(C)C)NC(=O)[C@H](Cc2c[nH]c3ccccc23)NC(=O)[C@H](CC(=O)O)NC(=O)[C@H](Cc2ccc(O)cc2)NC(=O)[C@H](CCCCN)NC(=O)CSC[C@@H](C(=O)NCC(N)=O)NC(=O)[C@H](CO)NC(=O)[C@H](C(C)C)NC1=O [Example 1211] ({CH2CO}-KYDWV[Bip]R[NMeA][NMeF]RLVSCG-NH2; thioether N-14)  650 nM
4. CC(C)C[C@@H]1NC(=O)[C@H](Cc2c[nH]c3ccccc23)NC(=O)[C@H](CC(=O)O)NC(=O)[C@H](Cc2ccc(O)cc2)NC(=O)[C@H](Cc2ccccc2)NC(=O)CSC[C@@H](C(=O)NCC(N)=O)NC(=O)[C@H](CO)NC(=O)[C@H](C(C)C)NC(=O)[C@H](CC(C)C)NC(=O)[C@H](CCCNC(=N)N)NC(=O)CN(C)C(=O)[C@H](C)N(C)C(=O)[C@H](CC(=O)O)NC(=O)[C@H](Cc2ccc(-c3ccccc3)cc2)NC1=O [Example 1237] ({CH2CO}-FYDWL[Bip]D[NMeA][Sar]RLVSCG-NH2; thioether N-14)  520 nM
5. CC(C)C[C@@H]1NC(=O)[C@H](Cc2c[nH]c3ccccc23)NC(=O)[C@H](CC(=O)O)NC(=O)[C@H](Cc2ccc(O)cc2)NC(=O)[C@H](Cc2ccccc2)NC(=O)CSC[C@@H](C(=O)N[C@@H](C)C(N)=O)NC(=O)[C@H](CO)NC(=O)[C@H](C(C)C)NC(=O)[C@H](CC(C)C)NC(=O)[C@H](CC(N)=O)NC(=O)[C@H]2CCCN2C(=O)[C@@H](CCCCN)NC(=O)[C@H](C(C)C)NC(=O)[C@H](Cc2ccc(-c3ccccc3)cc2)NC1=O [Example 1197] ({CH2CO}-FYDWL[Bip]V[dK][dP]NLVSCA-NH2; thioether N-14)  420 nM
6. CC(C)C[C@@H]1NC(=O)[C@H](CCCNC(=N)N)NC(=O)[C@H](Cc2ccccc2)N(C)C(=O)[C@H](C)N(C)C(=O)[C@H](CCCNC(=N)N)NC(=O)[C@H](Cc2ccc(-c3ccccc3)cc2)NC(=O)[C@H](C(C)C)NC(=O)[C@H](Cc2c[nH]c3ccccc23)NC(=O)[C@H](CC(=O)O)NC(=O)[C@H](Cc2ccc(O)cc2)NC(=O)[C@H](CC(N)=O)NC(=O)CSC[C@@H](C(=O)NCC(N)=O)NC(=O)[C@H]([C@@H](C)O)NC(=O)[C@H](C(C)C)NC1=O [Example 1310] ({CH2CO}-NYDWV[Bip]R[NMeA][NMeF]RLVTCG-NH2; thioether N-14)  340 nM
7. CC(C)C[C@@H]1NC(=O)[C@H](CCCNC(=N)N)NC(=O)[C@H](Cc2ccccc2)N(C)C(=O)[C@@H](CCCCN)NC(=O)[C@H](CCCNC(=N)N)NC(=O)[C@H](Cc2ccc(-c3ccccc3)cc2)NC(=O)[C@H](C(C)C)NC(=O)[C@H](Cc2c[nH]c3ccccc23)NC(=O)[C@H](CC(=O)O)NC(=O)[C@H](Cc2ccc(O)cc2)NC(=O)[C@H](CC(N)=O)NC(=O)CSC[C@@H](C(=O)N[C@@H](C)C(N)=O)NC(=O)[C@H]([C@@H](C)O)NC(=O)[C@H](C(C)C)NC1=O [Example 1369] ({CH2CO}-NYDWV[Bip]R[dK][NMeF]RLVTCA-NH2; thioether N-14)  330 nM
8. CCCC[C@@H]1NC(=O)CSC[C@@H](C(=O)NCC(N)=O)NC(=O)[C@H](CO)NC(=O)[C@H](C(C)C)NC(=O)[C@H](CC(C)C)NC(=O)[C@H](CC(N)=O)NC(=O)CN(C)C(=O)[C@H](C)N(C)C(=O)[C@H](C(C)C)NC(=O)[C@H](Cc2ccc(-c3ccccc3)cc2)NC(=O)[C@H](CC(C)C)NC(=O)[C@H](Cc2c[nH]c3ccccc23)NC(=O)[C@H](CC(=O)O)NC(=O)[C@H](Cc2ccc(O)cc2)NC1=O [Example 1100] ({CH2CO}-[Nle]YDWL[Bip]V[NMeA][Sar]NLVSCG-NH2; thioether N-14)  310 nM
9. CC(C)[C@@H]1NC(=O)[C@H](Cc2c[nH]c3ccccc23)NC(=O)[C@H](CC(=O)O)NC(=O)[C@H](Cc2ccc(C(=O)O)cc2)NC(=O)[C@H](Cc2ccc(OCC(=O)O)cc2)NC(=O)CSC[C@@H](C(=O)N[C@@H](C)C(N)=O)NC(=O)[C@H]([C@@H](C)O)NC(=O)[C@H](C(C)C)NC(=O)[C@H](CC2CCCCC2)NC(=O)[C@H](CCN)NC(=O)[C@H](Cc2ccc(O)cc2)N(C)C(=O)[C@H](CCCN)NC(=O)[C@H](CCC(=O)O)NC(=O)[C@H](Cc2ccc(-c3ccccc3)cc2)NC1=O [Example 1433] ({CH2CO}-Y(Carboxymethyl)[Phe(4-COOH)]DWV[Bip]E[Orn][NMeY][Dab][Cha]VTCA-NH2; thioether N-14)  260 nM
10. CC(C)C[C@@H]1NC(=O)[C@H](Cc2c[nH]c3ccccc23)NC(=O)[C@H](CC(=O)O)NC(=O)[C@H](Cc2ccc(O)cc2)NC(=O)[C@H](Cc2ccccc2)NC(=O)CSC[C@@H](C(=O)N[C@@H](C)C(N)=O)NC(=O)[C@H]([C@@H](C)O)NC(=O)[C@H](C(C)C)NC(=O)[C@H](CC(C)C)NC(=O)[C@H](CC(N)=O)NC(=O)[C@H]2CCCN2C(=O)[C@H](CCCN)NC(=O)[C@H](C(C)C)NC(=O)[C@H](Cc2ccc(-c3ccccc3)cc2)NC1=O [Example 1418] ({CH2CO}-FYDWL[Bip]V[Orn][dP]NLVTCA-NH2; thioether N-14)  210 nM
11. CC(C)C[C@@H]1NC(=O)[C@H](CCCNC(=N)N)NC(=O)[C@H](Cc2ccccc2)N(C)C(=O)[C@H](C)N(C)C(=O)[C@H](CCCNC(N)=O)NC(=O)[C@H](Cc2ccc(-c3ccccc3)cc2)NC(=O)[C@H](C(C)C)NC(=O)[C@H](Cc2c[nH]c3ccccc23)NC(=O)[C@H](CC(=O)O)NC(=O)[C@H](Cc2ccc(O)cc2)NC(=O)[C@H](CC(N)=O)NC(=O)CSC[C@@H](C(=O)NCC(N)=O)NC(=O)[C@H](CO)NC(=O)[C@H](C(C)C)NC1=O [Example 1381] ({CH2CO}-NYDWV[Bip][Cit][NMeA][NMeF]RLVSCG-NH2; thioether N-14)  160 nM
12. CC(C)C[C@@H]1NC(=O)[C@H](Cc2c[nH]c3ccccc23)NC(=O)[C@H](CC(=O)O)NC(=O)[C@H](Cc2ccncc2)NC(=O)[C@H](Cc2ccc(OCC(=O)O)cc2)NC(=O)CSC[C@@H](C(=O)N[C@@H](C)C(N)=O)NC(=O)[C@H](CO)NC(=O)[C@H](C(C)C)NC(=O)[C@H](CC(C)C)NC(=O)[C@H](CC(N)=O)NC(=O)[C@H]2CCCN2C(=O)[C@H](C)N(C)C(=O)[C@H](C(C)C)NC(=O)[C@H](Cc2ccc(-c3ccccc3)cc2)NC1=O [Example 1435] ({CH2CO}-Y(Carboxymethyl)[4Pal]DWL[Bip]V[NMeA][dP]NLVSCA-NH2; thioether N-14)  90 nM
13. CC(C)C[C@@H]1NC(=O)[C@H](CCN)NC(=O)[C@H](Cc2ccccc2)N(C)C(=O)[C@H](C)N(C)C(=O)[C@H](CCC(=O)O)NC(=O)[C@H](Cc2ccc(-c3ccccc3)cc2)NC(=O)[C@H](C(C)C)NC(=O)[C@H](Cc2c[nH]c3ccccc23)NC(=O)[C@H](CC(=O)O)NC(=O)[C@H](Cc2ccc(O)cc2)NC(=O)[C@H](CC(N)=O)NC(=O)CSC[C@@H](C(=O)N[C@@H](C)C(N)=O)NC(=O)[C@H](CCCN)NC(=O)[C@H](C(C)C)NC1=O [Example 1380] ({CH2CO}-NYDWV[Bip]E[NMeA][NMeF][Dab]LV[Orn]CA-NH2; thioether N-14)  70 nM
14. CC(C)C[C@@H]1NC(=O)[C@H](Cc2c[nH]c3ccccc23)NC(=O)[C@H](CC(=O)O)NC(=O)[C@H](Cc2ccc(O)cc2)NC(=O)[C@H](Cc2ccccc2)NC(=O)CSC[C@@H](C(=O)NCC(N)=O)NC(=O)[C@H](CO)NC(=O)[C@H](C(C)C)NC(=O)[C@H](CC(C)C)NC(=O)[C@H](CCN)NC(=O)[C@H]2CCCN2C(=O)[C@H](CCN)NC(=O)[C@H](C(C)C)NC(=O)[C@H](Cc2ccc(-c3ccccc3)cc2)NC1=O [Example 1417] ({CH2CO}-FYDWL[Bip]V[Dab][dP][Dab]LVSCG-NH2; thioether N-14)  70 nM
15. Cc1cccc(C[C@@H]2NC(=O)[C@H](CC(=O)O)NC(=O)[C@H](Cc3ccc(C(=O)O)cc3)NC(=O)[C@H](Cc3ccncc3)NC(=O)CSC[C@@H](C(=O)N[C@@H](C)C(N)=O)NC(=O)[C@H]([C@@H](C)O)NC(=O)[C@H](C(C)C)NC(=O)[C@H](CC3CCCCC3)NC(=O)[C@H](CCN)NC(=O)[C@H](Cc3ccccc3)N(C)C(=O)[C@H](CCCN)NC(=O)[C@H](CCC(=O)O)NC(=O)[C@H](Cc3ccc(-c4ccccc4)cc3)NC(=O)C(C(C)C)NC2=O)c1 (stereo partly drawn) [Example 1444] ({CH2CO}-[4Pal][Phe(4-COOH)]D[Phe(3-Me)][ξV][Bip]E[Orn][NMeF][Dab][Cha]VTCA-NH2; thioether N-14)  50 nM
